The source of these data is PMC6332510, “Leishmanicidal Activity of (+)-Phyllanthidine and the Phytochemical Profile of Margaritaria nobilis (Phyllanthaceae)” (Molecules, 2015).

The test system of data set [1] is L. (L.) amazonensis promastigote. The conditions noted are these: 72 h of treatment; cited from earlier work.
Data set [2] has as its system L. (L.) amazonensis amastigote form. Set-up: method as in PMID 20661748. The conditions noted are these: 79 μM, 72 h; cited from earlier work.
The subject of data set [3] is L. major-infected cell. Set-up: method as in PMID 16143535. The conditions noted are these: compared with non-infected conditions; cited from earlier work.
Data set [4] relates to Leishmania infected-macrophages. Set-up: method as in PMID 18164321. The settings on record: 250 μM; cited from earlier work.
Data set [5] deals with L. mexicana. Set-up: method as in doi:10.1080/13880200600878361. The settings on record: cited from earlier work.
Data set [6] concerns Leishmania (L.) amazonensis promastigotes. Kind of data set: Anti-promastigote assay (MTT). In kind it is cell-based. The method, then: Promastigotes from Leishmania (L.) amazonensis (MHOM/BR/26361) were obtained in NNN (Neal, Novy and Nicolle) medium from the Instituto Evandro Chagas and subsequently maintained in RPMI medium supplemented with 10% heat-inactivated fetal bovine serum (FBS) at 25 °C.
Leishmania (L.) amazonensis promastigotes (10^6 parasites/mL) were seeded in 24-well plates with RPMI medium without phenol, the medium was supplemented with 10% FBS, and the cells were then treated with different concentrations of (+)-phyllanthidine (10, 20, 50, 100 and 200 µg/mL). The cultures were incubated at 25 °C for 4 days without medium replacement. Every 24 h, aliquots were harvested and promastigotes were incubated with 20 µL of MTT (2 µg/mL) for 4 h. Then, 20 µL of DMSO was added to the wells, and the plate was allowed to shake for 30 min for complete solubilization. One known anti-leishmanial drug (Amphotericin B—0.5 µg/mL) was used as a positive control.

The test system of data set [7] is Leishmania (L.) amazonensis amastigotes. Nature of the data set: Anti-amastigote assay in infected peritoneal macrophages. In kind it is cell-based. The settings on record: for parasite (amastigote) reduction: infected macrophages, vs untreated cells. As for the experimental part:
(§1) Macrophages were obtained from the peritoneal cavity of male mouse BALB/c (Mus musculus), and the animals were sacrificed in a CO2 chamber (Insight®). The material was harvested with Hank’s solution, concentrated by centrifugation at 4 °C, cultured in a 24-well plate and incubated in an atmosphere containing 5% CO2 at 37 °C for 1 h. After that, non-adherent cells were washed with DMEM and incubated for 24 h with DMEM medium supplemented with 10% FBS. The experimental protocol was approved by the Committee on the Ethics of Animal Experiments (CEPAE, grant number 046-2015) of Universidade Federal do Pará.
Adherent peritoneal macrophages were infected with Leishmania (L.) amazonensis promastigotes (stationary growth phase) at a parasite/macrophage ratio of 10:1 and incubated for 3 h at 37 °C and 5% CO2. After 3 h, free parasites were removed by washing with PBS pH 7.2, and the cultures were treated with 50 and 100 µg/mL (+)-phyllanthidine for 48 h post infection, without replacing the culture medium. The cells were washed with PBS pH 7.2, fixed with methanol and stained with Giemsa. The number of parasites was determined by examining three cover slips for each treatment. At least 100 infected macrophages were counted, and the results were expressed as the survival percentage, in comparison with controls. Amphotericin B (0.5 µg/mL) was used as a positive control. The selectivity index (SI) was calculated as the ratio between the cytotoxicity and antiparasitic activity against intracellular amastigotes.

Data set [8] deals with L. (V.) peruviana promastigote forms. More on the design: method as in PMID 19489596. The settings on record: cited from earlier work.
Data set [9] concerns L. (V) braziliensis promastigote forms. More on the design: method as in PMID 19489596. The settings on record: cited from earlier work.
Data set [10] can be described thus: Cytotoxicity assay of host cells (MTT). The data set is classed as cell-based, mouse BALB/c (Mus musculus). The settings on record: male, BALB/c, mouse, peritoneal macrophages. As for the experimental part:
as §1
(§2) MTT is a tetrazolium salt that is converted into blue formazan crystals that are insoluble in water after cleavage by mitochondrial dehydrogenases, which causes them to accumulate in viable cells. The procedure was performed according to Fotakis and Timbrell (2006), with some modifications. Macrophages treated with 10, 20, 50, 100 and 200 µg/mL of (+)-phyllanthidine for 48 h and untreated cells were incubated with MTT (0.5 mg/mL) dissolved in phosphate-buffered saline (PBS), pH 7.2 for 3 h in a humidified atmosphere containing 5% CO2 at 37 °C. […] The absorbance of each solution was recorded at an optical density (OD) of 570 nm using a spectrophotometer (Bio-Rad Model 450 Microplate Reader). The assay specificity was determined by using non-viable cells treated with 10% formaldehyde in PBS. […]

Data set [11] deals with peritoneal macrophages. Kind of data set: Cytotoxicity assay of host cells (MTT). In kind it is cell-based, mouse BALB/c (Mus musculus). The conditions noted are these: 10-200 µg/mL, 48 h. The method, then: as §1, §2
Data set [12] has as its system Leishmania (L.) amazonensis promastigotes. Kind of data set: Ultrastructural assay (SEM and TEM). The data set is classed as cell-based. The method, then: Scanning Electron Microscopy (SEM): Promastigotes were treated with 50 and 100 µg/mL of (+)-phyllanthidine for 4 days, and they were fixed with paraformaldehyde (4%) and glutaraldehyde (2.5%) in cacodylate buffer (0.1 M) for one hour. The cells were post-fixed in osmium tetroxide (1%), dehydrated in graded ethanol, brought to their critical point with CO2, coated with gold and analyzed in a Zeiss LEO 1450VP SEM (Göttingen, Germany).
Transmission Electron Microscopy (TEM): Promastigotes treated with 50 and 100 µg/mL (+)-phyllanthidine for 4 days were fixed with glutaraldehyde (2.5%) and paraformaldehyde (4%) in cacodylate buffer (0.1 M) for one hour. The parasites were post-fixed in an osmium tetroxide solution (1%) and ferrocyanide (0.8%), dehydrated in graded acetone and embedded in epoxy resin. Ultrathin sections were obtained, stained with uranyl acetate/lead citrate and examined with a Zeiss 906E TEM (Göttingen, Germany).

Data set [13] concerns Leishmania amazonensis. More on the design: method as in PMID 19748254. The conditions noted are these: cited from earlier work.
Data set [14] deals with L. braziliensis. Set-up: method as in PMID 19748254. The settings on record: cited from earlier work.

Several values for one entry are separate records, joined by “and”; a condition that tells them apart may be missing. Equal entries are not always repeated. Entries after “also recorded” stand apart in the source; their conditions may differ.

With `CCC(C)C(=O)NC1CCC(=O)N(CCc2ccccc2)C1=O` (centres unmarked) [julocrotine], in data set [1], the reduction in promastigotes is on record as 54%. Moreover, in data set [2], the “reduction of amastigote form” value is listed as 80%.

With `O=C(O[C@@H]1O[C@@H]2COC(=O)c3cc(O)c(O)c(O)c3-c3c(cc(O)c(O)c3O)C(=O)O[C@H]([C@H]1O)[C@@H]2O)c1cc(O)c(O)c(O)c1` [Corilagin, corilagin], the “iNOS and cytokine mRNA levels” value in [3] was “capable of enhancing the iNOS and cytokine mRNA levels”.

For the compound `O=C(O)c1cc(O)c(O)c(O)c1` [gallic acid], in [4], the NO-production result is listed as “modest NO-production” and the parasite viability result is “did not reduce parasite viability”.

As to `COC(=O)c1cc(O)c(O)c(O)c1` [Methyl galate, methyl gallate], in [5], the IC50 (as a rule, the concentration that gives 50% inhibition) is 33.6 µM.

Turning to `C[C@@H]1[C@H](O)[C@@H](C)/C=C/C=C/C=C/C=C/C=C/C=C/C=C/[C@H](O[C@@H]2O[C@H](C)[C@@H](O)[C@H](N)[C@@H]2O)C[C@@H]2O[C@](O)(C[C@@H](O)C[C@@H](O)[C@H](O)CC[C@@H](O)C[C@@H](O)CC(=O)O[C@H]1C)C[C@H](O)[C@H]2C(=O)O` [Amphotericin B, reference compound], the “reduction of promastigotes (positive control)” value in data set [6] (0.5 μg/mL (0.54 µM), 96 h) is 100%. Moreover, in data set [7] (0.5 µg/mL (0.54 µM), 48 h), the “amastigote reduction (positive control)” value was determined as 90.42%.

With `CCCCCCCCCCCCCCCCOP(=O)([O-])OCC[N+](C)(C)C` [miltefosine, reference compound], in [5], the IC50 is 0.5 µM.

In the case of `O=c1c(O)c(-c2ccc(O)cc2)oc2cc(O)cc(O)c12` [Kaempferol, kaempferol], the leishmanicidal activity entry in data set [8] and in [9] was “showed leishmanicidal activity” throughout.

With `O=C1C=C2C=CC3CC2(O1)C1CCCCN1O3` (single isomer, unassigned; (+)) [(+)-phyllanthidine], the IC50 is 82.4 µg/mL and 353 µM in [6] (Leishmania, 96 h, 96 h of treatment); 49.1 µg/mL and 210 µM in data set [7] (Leishmania, Peritoneal macrophage, 48 h of treatment). The inhibition (commonly the relative decrease from the control value, in per cent) at 100 µg/mL in data set [6] (Leishmania, 100 µg/mL, 96 h of treatment, read-out: inhibition of promastigote growth) amounted to 67.7%. Further, the “parasite (amastigote) reduction” value was found to be 75.5% in data set [7] (50 μg/mL, 48 h) and 83.96% in data set [7] (100 μg/mL, 48 h). For the same compound, the “selectivity index (SI)” value in [7] (ratio between cytotoxicity (macrophages) and activity against intracellular amastigotes) is reported as 25.08. Moreover, the CC50 (usually the concentration giving 50% cytotoxicity) at 48 h in data set [10] was greater than 200 µg/mL. For the same compound, the “cytotoxic effect on macrophages” value in data set [11] is “no cytotoxic effects on macrophages; also recorded: No cytotoxic effect was detected”. In addition, the “promastigote ultrastructural changes (TEM)” value is “kinetoplast swelling” in data set [12] (50 µg/mL, 96 h) and “increase in the number of acidocalcisome-like structures” in [12] (100 µg/mL).

On to `C=C(C)[C@@H]1CC[C@]2(C(=O)O)CC[C@]3(C)[C@H](CC[C@@H]4[C@@]5(C)CC[C@H](O)C(C)(C)[C@@H]5CC[C@]43C)[C@@H]12` [betulinic acid], for which the antiprotozoal activity result in data set [13] and in data set [14] was “No antiprotozoal activity” throughout.
